Where no end group is shown, it is not given here.
Assays:
BAK1 gene = BAK1 gene expression in roots (semi-quantitative RT-PCR and qRT-PCR); assay type: in vivo, Arabidopsis thaliana; settings: 1 μM, 1 h, Arabidopsis seedlings
Protocol: Arabidopsis plants were grown for 10 days in vertical plates and then treated in liquid medium containing 1 μM AtRALF1 for 1 h at room temperature. Control plants were incubated under identical conditions in a peptide-free medium. The total RNA was isolated from the roots of Arabidopsis plants using TRIzol reagent according to the manufacturer’s instructions (Life Technologies). The cDNA was synthesized using the ImProm-II Reverse Transcription System (Promega) and 1 μg of RNA. An aliquot of cDNA (1.5 μl) was used as the template in the PCR reaction, which was performed for 29 cycles, unless indicated otherwise, using gene-specific primers (S1 Table). The glyceraldehyde 3-phosphate dehydrogenase (GAPDH) gene was used as an internal control. All experiments were repeated at least three times with independent biological replicates. The data shown are from one representative experiment.
The qRT-PCR analysis was performed using 10-fold-diluted cDNA, Maxima SYBR Green Rox/qPCR Master Mix (Thermo Scientific) and a StepOne Real-Time PCR System (Applied Biosystems). The glyceraldehyde 3-phosphate dehydrogenase (GAPDH) gene was used as an internal control. […] The threshold cycle (CT) was determined by the instrument, and the ΔΔCT method was used to calculate the fold change in each gene. […] Three replicates were analyzed for each biological sample, and two biological samples were analyzed. […]

[1] = system: Arabidopsis seedlings, rhizosphere; test: Rhizosphere alkalinization, gel with pH indicator bromocresol purple; assay type: in vivo, Arabidopsis thaliana; settings: wild-type and bak1 seedlings, 10 μM, 30 min, pH 5.7
Protocol: To analyze the rhizosphere alkalinization, seedlings were grown in plates for 7 days. To avoid damage to the roots, the medium was solidified with 12 g l^-1 Phytagel. Seedlings were transferred to plates containing the pH indicator bromocresol purple (pH 5.7) as described previously and treated with 10 μM AtRALF1 or water. Images were captured 30 min after transfer onto the gel indicator. The experiments were repeated at least three times using independent biological replicates. The data shown are from one representative experiment.

[2] = system: AtPRP3, AtHRGP2, CPD and DWF4 genes; settings: cited from earlier work
Text: AtRALF1-overexpressing plants are less sensitive to exogenous brassinosteroids (BRs). […] AtRALF1 also induces two cytochrome P450 monooxygenase genes related to the BR biosynthetic pathway: Constitutive Photomorphism and Dwarfism (CPD) and DWARF4 (DWF4). We exposed the bak1 mutants to the same concentration of AtRALF1 and evaluated the capacity to induce the AtPRP3, AtHRGP2, CPD and DWF4 genes. None of the AtRALF1-inducible genes were ...

[3] = system: intact Arabidopsis seedlings; test: Binding assay with acridinium-labeled AtRALF1, intact seedlings; parameters: species or system Arabidopsis thaliana; settings: for competition of acriAtRALF1 binding: 10-fold excess of unlabeled peptide
Protocol: (A) Whole seedlings (5 days old) were treated for 15 min with acriAtRALF1 (acriR1), acriR1 and an excess of unlabeled AtRALF34 (R34), RALF1(9–49) [(R-9-49)], or AtRALF1 (R1), as indicated. The values are the mean ± SD of two measurements (5 seedlings each). (B) Microsomal fractions from wild-type and bak1 mutants were incubated for 15 min with acriAtRALF1 (acriR1), with acriR1 and an excess of unlabeled RALF1(9–49) [(R-9-49)], or with AtRALF1 (R1), as indicated. The values are the mean ± SD of two measurements. The proportions of labeled: unlabeled proteins are shown in parentheses. Single and triple asterisks indicate P < 0.1 and P < 0.01 (Student’s t test).
Arabidopsis seedlings were grown for 5 days on vertical plates. Roots were homogenized in extraction buffer [300 mM sucrose, 100 mM Tris-HCl pH 7.5, 25 mM EDTA, 25 mM NaF, 1 mM Na2MoO4, 1 mM PMSF and protease inhibitor cocktail (Roche), adjusted to pH 6.2], and the homogenate was spun at 2,000 x g for 10 min at 4 °C. The supernatant was recovered and centrifuged at 100,000 x g for 50 min at 4 °C to precipitate the microsomal pellet. The pellet was resuspended in the extraction buffer plus 0.5% Triton-X. Seedlings or microsomal fractions were placed in 200 μl of medium and incubated with 7 nM acridinium-labeled peptide (acriAtRALF1 or acriAtRALF34) and different concentrations of AtRALF1, AtRALF34 or RALF1(9–49) for 15–20 min at 4 °C on a shaker. After incubation, the seedlings or microsomal fractions were washed three times with the same medium. Unless indicated otherwise, five entire seedlings and approximately 10 ng of microsomal fractions were used per treatment. The resulting luminescence emissions from the acridinium were measured using a microplate reader (Biotec ELx 800) at 2 s after injecting 50 μl of a solution containing 20 mM H2O2 in 0.1 M NaOH. These experiments were repeated at least three times using independent biological replicates. Duplicates were used for each concentration or treatment. The data shown are from one representative experiment.
Supplementary file pgen.1007053.s017.pdf: S17 Fig Analyses of acridinium-labeled AtRALF1 (acriAtRALF1) and binding of acriAtRALF1 in bak1-4 and fer4 mutants. (A) The Ca^2+ mobilization assay comparing the acriAtRALF1 activity with the AtRALF1 peptide. A total of 20 time-points per treatment were measured over 160 sec and summed. The results are the means ± SD of two measurements. (B) acriAtRALF1 binding in whole seedlings and only in roots of Arabidopsis. The roots were excised just before measurements. Ctr, seedlings treated with unlabeled AtRALF1. (C) Whole seedlings (5 days old) were treated for 20 min with acriAtRALF1 (acriR1), acriR1 and an excess of unlabeled AtRALF1 (R1), as indicated. The values are the mean ± SD of three measurements (5 seedlings each). The proportions of labeled: unlabeled proteins are shown in parentheses. Triple asterisks indicates P < 0.001 (Student’s t test). (PDF) Click here for additional data file.
Supplementary file pgen.1007053.s018.pdf: S18 Fig Binding of acridinium-labeled AtRALF1 and AtRALF34 to intact Arabidopsis seedlings. (A) bak7 seedlings (5 days old) were treated for 15 min with acriAtRALF1 (acriR1), acriR1 and an excess of unlabeled AtRALF1 (R1), as indicated. (B) bak1 seedlings (5 days old) were treated for 15 min with acriAtRALF34 (acriR34), acriR34 and an excess of unlabeled AtRALF34 (R34) or AtRALF1 (R1), as indicated. The proportions of labeled: unlabeled proteins are shown in parentheses. The values are the mean ± SD of two measurements (5 seedlings each). (PDF) Click here for additional data file.

| Substance | BAK1 gene expression in roots (BAK1 gene) | rhizosphere coloration (alkalinization) [1] | induction of AtPRP3 and AtHRGP2 genes ([2]; Arabidopsis seedling roots, ref [9]) | induction of CPD and DWF4 genes ([2]; ref [9]) | AtEXPA5 expression ([2]; roots of treated seedlings, ref [16]–[18]) | reduction of acriAtRALF1 binding ([3]; bak1-1, 10-fold excess of AtRALF1) | acriAtRALF1 binding reduced to ([3]; bak1-1, 100- or 500-fold excess of AtRALF1) [%] | reduction of acriAtRALF1 binding ([3]; bak1-3, 10-fold excess of AtRALF1) [%] | acriAtRALF1 binding reduced to ([3]; bak1-3, 100- or 500-fold excess of AtRALF1) [%] | reduction of acriAtRALF1 binding ([3]; bak1-4, 10-fold excess of AtRALF1) [%] | acriAtRALF1 binding reduced to ([3]; bak1-4, 100- or 500-fold excess of AtRALF1) [%] | share of AtRALF1 binding due to BAK1 ([3]; intact roots) | reduction of acriAtRALF1 binding ([3]; wild-type seedlings, 10-fold excess of unlabeled AtRALF1) [%] | reduction of acriAtRALF1 binding ([3]; wild-type seedlings, 100-fold excess of AtRALF1, printed "up to") [%] | further reduction of acriAtRALF1 binding ([3]; wild-type seedlings, 500-fold excess of AtRALF1) | competition of acriAtRALF1 binding ([3]; bak1 mutants) | competition of acriAtRALF1 binding ([3]; wild-type seedlings, 7 nM acriAtRALF1, 15 min, 4 °C) |
| --- | --- | --- | --- | --- | --- | --- | --- | --- | --- | --- | --- | --- | --- | --- | --- | --- | --- |
| AtRALF1: root-specific RALF isoform in Arabidopsis; recombinant peptide hormone produced in E. coli (ATTKYISYQSLKRNSVPCSRRGASYYNCQNGAQANPYSRGCSKIARCRS; ends and bridges not checked; cysteine pairing not given here) | induced BAK1 gene expression in the roots up to levels found in untreated p35S:AtRALF1 roots | developed a purple coloration around the rhizosphere | induces, in a dose-dependent manner | induces | repressed in the roots of AtRALF1-treated seedlings | approximately 32% | 54 | ~35 | 63 | ~33 | 61 | approximately 30% | 24 | 59 | No further reduction was observed |  |  |
| RALF1(9–49): inactive AtRALF1 peptide which has a deletion of the first 8 amino acids (QSLKRNSVPCSRRGASYYNCQNGAQANPYSRGCSKIARCRS; ends and bridges not checked; cysteine pairing not given here; UniProt Q9SRY3 80-120, looked up, fragment) |  |  |  |  |  |  |  |  |  |  |  |  |  |  |  | did not reduce the binding in the mutant backgrounds | could not be competed out |
